In PubChem BioAssay (NCI):
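Where inhibition never reached the appropriate level, the endpoint shown equals the highest concentration tested. Otherwise, values were interpolated linearly from a five-concentration, 48-hour dose response in 96-well plates. The concentration for full growth arrest is given as TGI.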

What was measured:
Assay in all cases: NCI tumour cell line growth inhibition, 48 h
DMS 273 small cell lung = tested on: DMS 273 small cell lung
HOP-18 NSCLC = tested on: HOP-18 NSCLC
XF 498 CNS = tested on: XF 498 CNS
M19-MEL melanoma = tested on: M19-MEL melanoma
SNB-78 CNS = tested on: SNB-78 CNS
MOLT-4 leukemia = tested on: MOLT-4 leukemia
SN12K1 renal = tested on: SN12K1 renal
UACC-257 melanoma = tested on: UACC-257 melanoma
SF-295 CNS = tested on: SF-295 CNS
NCI/ADR-RES ovarian = tested on: NCI/ADR-RES ovarian
RXF 393 renal = tested on: RXF 393 renal
NCI-H226 lung = tested on: NCI-H226 lung
SF-268 CNS = tested on: SF-268 CNS
U251 CNS = tested on: U251 CNS
NCI-H23 lung = tested on: NCI-H23 lung
HOP-62 NSCLC = tested on: HOP-62 NSCLC
P388/ADR leukemia = tested on: P388/ADR leukemia
SW-620 colon = tested on: SW-620 colon
SNB-75 CNS = tested on: SNB-75 CNS
COLO 205 colon = tested on: COLO 205 colon
HL-60(TB) leukemia = tested on: HL-60(TB) leukemia
KM20L2 colon = tested on: KM20L2 colon
A498 renal = tested on: A498 renal
OVCAR-5 ovarian = tested on: OVCAR-5 ovarian
RPMI-8226 leukemia = tested on: RPMI-8226 leukemia
P388 leukemia = tested on: P388 leukemia
HCC-2998 colon = tested on: HCC-2998 colon
CAKI-1 renal = tested on: CAKI-1 renal
MCF7 breast = tested on: MCF7 breast
K-562 leukemia = tested on: K-562 leukemia
UACC-62 melanoma = tested on: UACC-62 melanoma
SN12C renal = tested on: SN12C renal
IGROV1 ovarian = tested on: IGROV1 ovarian
HCT-116 colon = tested on: HCT-116 colon
OVCAR-4 ovarian = tested on: OVCAR-4 ovarian
SK-MEL-2 melanoma = tested on: SK-MEL-2 melanoma
CCRF-CEM leukemia = tested on: CCRF-CEM leukemia
A549 NSCLC = tested on: A549 NSCLC
LOX IMVI melanoma = tested on: LOX IMVI melanoma
UO-31 renal = tested on: UO-31 renal
OVCAR-8 ovarian = tested on: OVCAR-8 ovarian
OVCAR-3 ovarian = tested on: OVCAR-3 ovarian
SK-MEL-28 melanoma = tested on: SK-MEL-28 melanoma
SK-MEL-5 melanoma = tested on: SK-MEL-5 melanoma
HT29 colon = tested on: HT29 colon
NCI-H522 lung = tested on: NCI-H522 lung
DMS 114 small cell lung = tested on: DMS 114 small cell lung
DLD-1 colon = tested on: DLD-1 colon
SK-OV-3 ovarian = tested on: SK-OV-3 ovarian
HCT-15 colon = tested on: HCT-15 colon
SF-539 CNS = tested on: SF-539 CNS
EKVX NSCLC = tested on: EKVX NSCLC
NCI-H460 lung = tested on: NCI-H460 lung
KM12 colon = tested on: KM12 colon
SNB-19 CNS = tested on: SNB-19 CNS
MALME-3M melanoma = tested on: MALME-3M melanoma
HOP-92 NSCLC = tested on: HOP-92 NSCLC

CC1(C)OC2CC(=O)OCC23C1CC(=O)C1(C)C3CCC2(C)C(c3ccoc3)OC(=O)C3OC321 (configuration not stated)
TGI (DMS 273 small cell lung): > 125 µM | TGI (HOP-18 NSCLC): > 125 µM | TGI (XF 498 CNS): > 125 µM | TGI (M19-MEL melanoma): > 125 µM | TGI (SNB-78 CNS): > 125 µM | TGI (MOLT-4 leukemia): > 125 µM | TGI (SN12K1 renal): > 125 µM | TGI (UACC-257 melanoma): > 125 µM | TGI (SF-295 CNS): > 125 µM | TGI (NCI/ADR-RES ovarian): > 125 µM | TGI (RXF 393 renal): > 125 µM | TGI (NCI-H226 lung): > 125 µM | TGI (SF-268 CNS): > 125 µM | TGI (U251 CNS): > 125 µM | TGI (NCI-H23 lung): > 125 µM | TGI (HOP-62 NSCLC): > 125 µM | TGI (P388/ADR leukemia): > 125 µM | TGI (SW-620 colon): > 125 µM | TGI (SNB-75 CNS): > 109 µM | TGI (COLO 205 colon): > 125 µM | TGI (HL-60(TB) leukemia): > 125 µM | TGI (KM20L2 colon): > 125 µM | TGI (A498 renal): > 125 µM | TGI (OVCAR-5 ovarian): > 125 µM | TGI (RPMI-8226 leukemia): > 125 µM | TGI (P388 leukemia): > 39.5 µM | TGI (HCC-2998 colon): > 125 µM | TGI (CAKI-1 renal): > 125 µM | TGI (MCF7 breast): > 70.3 µM | TGI (K-562 leukemia): > 70.3 µM | TGI (UACC-62 melanoma): > 125 µM | TGI (SN12C renal): > 39.5 µM | TGI (IGROV1 ovarian): > 125 µM | TGI (HCT-116 colon): > 125 µM | TGI (OVCAR-4 ovarian): > 125 µM | TGI (SK-MEL-2 melanoma): > 125 µM | TGI (CCRF-CEM leukemia): > 125 µM | TGI (A549 NSCLC): > 125 µM | TGI (LOX IMVI melanoma): > 125 µM | TGI (UO-31 renal): > 125 µM | TGI (OVCAR-8 ovarian): 7.03 µM | TGI (OVCAR-3 ovarian): > 125 µM | TGI (SK-MEL-28 melanoma): > 125 µM | TGI (SK-MEL-5 melanoma): > 125 µM | TGI (HT29 colon): > 125 µM | TGI (NCI-H522 lung): > 125 µM | TGI (DMS 114 small cell lung): > 125 µM | TGI (DLD-1 colon): > 125 µM | TGI (SK-OV-3 ovarian): > 125 µM | TGI (HCT-15 colon): > 125 µM | TGI (SF-539 CNS): > 125 µM | TGI (EKVX NSCLC): > 58 µM | TGI (NCI-H460 lung): > 125 µM | TGI (KM12 colon): > 125 µM | TGI (SNB-19 CNS): > 125 µM | TGI (MALME-3M melanoma): > 125 µM

CCCCC#CS(=O)(=O)C(F)(F)F
TGI (DMS 273 small cell lung): > 100 µM | TGI (HOP-18 NSCLC): > 100 µM | TGI (XF 498 CNS): > 94.7 µM | TGI (SNB-78 CNS): > 100 µM | TGI (MOLT-4 leukemia): > 100 µM | TGI (SN12K1 renal): > 100 µM | TGI (UACC-257 melanoma): > 100 µM | TGI (SF-295 CNS): > 100 µM | TGI (NCI/ADR-RES ovarian): > 100 µM | TGI (RXF 393 renal): 78.1 µM | TGI (NCI-H226 lung): > 100 µM | TGI (SF-268 CNS): > 100 µM | TGI (U251 CNS): > 100 µM | TGI (NCI-H23 lung): > 100 µM | TGI (HOP-62 NSCLC): > 100 µM | TGI (P388/ADR leukemia): > 100 µM | TGI (SW-620 colon): > 100 µM | TGI (SNB-75 CNS): 98.3 µM | TGI (COLO 205 colon): > 100 µM | TGI (HL-60(TB) leukemia): 62.9 µM | TGI (KM20L2 colon): > 100 µM | TGI (A498 renal): > 100 µM | TGI (OVCAR-5 ovarian): > 100 µM | TGI (RPMI-8226 leukemia): > 100 µM | TGI (P388 leukemia): 63.2 µM | TGI (HCC-2998 colon): > 31.6 µM | TGI (CAKI-1 renal): > 100 µM | TGI (MCF7 breast): > 100 µM | TGI (K-562 leukemia): > 100 µM | TGI (UACC-62 melanoma): 99.6 µM | TGI (SN12C renal): > 100 µM | TGI (IGROV1 ovarian): > 100 µM | TGI (HCT-116 colon): > 100 µM | TGI (OVCAR-4 ovarian): 98.9 µM | TGI (SK-MEL-2 melanoma): > 100 µM | TGI (CCRF-CEM leukemia): > 100 µM | TGI (A549 NSCLC): > 100 µM | TGI (LOX IMVI melanoma): > 100 µM | TGI (UO-31 renal): > 100 µM | TGI (OVCAR-8 ovarian): > 100 µM | TGI (OVCAR-3 ovarian): > 100 µM | TGI (SK-MEL-28 melanoma): > 100 µM | TGI (SK-MEL-5 melanoma): > 100 µM | TGI (HT29 colon): > 100 µM | TGI (NCI-H522 lung): > 100 µM | TGI (DMS 114 small cell lung): > 100 µM | TGI (DLD-1 colon): > 100 µM | TGI (SK-OV-3 ovarian): > 100 µM | TGI (HCT-15 colon): > 100 µM | TGI (SF-539 CNS): > 100 µM | TGI (EKVX NSCLC): > 100 µM | TGI (NCI-H460 lung): > 100 µM | TGI (KM12 colon): > 100 µM | TGI (HOP-92 NSCLC): > 84.4 µM | TGI (SNB-19 CNS): > 100 µM | TGI (MALME-3M melanoma): > 100 µM
